In patent publication US11554162B2, “Pharmaceutical or food supplement preparation based on alpha-lactalbumin” (KOLFARMA S.R.L., priority 2018, dated 2023):

Tests used:
[1] = tested on: PTZ-induced seizures; experiment: Anticonvulsant action in the pentylenetetrazol (PTZ) seizure model after 15-day oral pretreatment; format: in vivo, C57BL/6 male mice
Protocol: The anticonvulsant action of a preparation according to the invention, consisting of alpha-lactalbumin and sodium butyrate, was evaluated in comparison with that of the single components alpha-lactalbumin and sodium butyrate in the above-mentioned animal model, using the convulsant agent pentylenetetrazol
The experiment was carried out on groups of 10 C57BL/6 male mice (Charles River Italy) for each tested dose (control groups of 10 C57BL/6 male mice were also used).
The animals of all groups were subcutaneously administered pentylenetetrazol (65 mg/kg) at the end of a 15-day pretreatment with sodium butyrate, alpha-lactalbumin, alpha-lactalbumin+sodium butyrate or vehicle, i.e. water (control), respectively.
This pretreatment was carried out by oral administration of a solution of either one of sodium butyrate, alpha-lactalbumin, alpha-lactalbumin+sodium butyrate in the vehicle, consisting of water, and of the vehicle (water) alone.
Firstly, three groups of 10 mice were orally administered 30 mg/day, 100 mg/day and 250 mg/day of sodium butyrate respectively, in the form of an aqueous solution contained in the bottle of the cage, for 15 days. The bottle of the cage of the control group (10 mice) only contained water.
On the 16th day, the animals of the four groups were subcutaneously administered 65 mg/kg of pentylenetetrazol.
Then, three groups of 10 mice were orally administered 125 mg/day, 250 mg/day and 375 mg/day of alpha-lactalbumin respectively, in the form of an aqueous solution contained in the bottle of the cage, for 15 days. The bottle of the cage of the control group (10 mice) only contained water.
On the 16th day, the animals of the four groups were subcutaneously administered 65 mg/kg of pentylenetetrazol (PTZ).
Finally, a first group of 10 mice was orally administered 125 mg alpha-lactalbumin+100 mg sodium butyrate per day, a second group of 10 mice was orally administered 250 mg alpha-lactalbumin+100 mg sodium butyrate per day, a third group of 10 mice was orally administered 375 mg alpha-lactalbumin+100 mg sodium butyrate per day, in the form of an aqueous solution contained in the bottle of the cage, for 15 days. The bottle of the cage of the control group (10 mice) only contained water.

[2] = tested on: audiogenic seizures; experiment: Protection against seizures in experimental models of epilepsy (audiogenic seizures in genetically epilepsy-prone-9 rats); format: in vivo; conditions: different experimental models of epilepsy; no increase on continuing up to 12 days; not dose dependent
Description: Also the results obtained both in experimental models and in clinical trials confirm the need of repeated administrations for several days.

[3] = cited from earlier work
[4] = tested on: seizures induced by acoustic stimulation; conditions: after three weeks of treatment; cited from earlier work
[5] = in vivo; cited from earlier work

alpha-lactalbumin
effect on percentage of mice with PTZ-induced seizures ([1]; alpha-lactalbumin 125 mg/day alone, oral for 15 days): does not significantly decrease
animals showing PTZ-induced seizures ([1]; alpha-lactalbumin 375 mg/day oral for 15 days, PTZ 65 mg/kg s.c. on day 16): less than 40%
course of percentage of animals with PTZ-induced seizures over dose ([1]; alpha-lactalbumin 125, 250, 375 mg/day oral for 15 days): decrease in a dose-dependent fashion
days of repeated administrations until protective action against seizures occurs [2]: at least 6 days
time after oral administration to demolition into medium-small peptides in the stomach [3]: 15 min
duration of protective effect against seizures after suspension of treatment [4]: at least one month

CCCC(=O)O [butyric acid]
cerebral uptake [5]: ~0.006%

CCCC(=O)[O-].[Na+] [sodium butyrate, reference compound]
animals that experienced seizures induced by pentylenetetrazol ([1]; sodium butyrate 30, 100 or 250 mg/day oral in drinking water for 15 days, PTZ 65 mg/kg s.c. on day 16, no significant difference from control): 100%
activity towards the seizures induced by pentylenetetrazol ([1]; sodium butyrate alone): devoid of any activity
